What is called melting point is the temperature, or range, at which the solid turns liquid.

The test system of data set [1] is arachidonic acid-induced ear swelling. Put plainly: topical arachidonic acid-induced ear swelling model in mice. In kind it is in vivo. The settings on record: male ICR mice, topical application 30 min before and 15 min after arachidonic acid; measured at 60 minutes; test compounds 375 mM, indomethacin 14 mM; n=10. The protocol: The test compounds, indomethacin (positive control), and vehicle were evaluated for anti-inflammatory activity in a topical arachidonic acid-induced ear swelling model in mice. Male ICR mice weighing 22±2 g were used and randomly divided; each group had 10 mice. Arachidonic Acid (0.5 mg in 20 μl of acetone:ethanol/1:1) was applied topically to the anterior and posterior surfaces of the right ear of each mice. Test substances and vehicle, as listed in Table 1 were similarly applied 30 min before and 15 min after arachidonic acid application. The thickness of the right ear and the left ear was measured and the difference calculated as an indication of the inflammation in the right ear. Ear swelling was measured by a Dyer model micrometer gauge at 60 and 90 minutes after arachidonic acid application as an index of inflammation. Percent inhibition was calculated according to the formula: Ic−It/Ic×100, where Ic and It refers to increase of ear thickness (mm) in control and treated mice, respectively. ANOVA and Dunnett's test were employed to ascertain significant difference between vehicle control and treated groups. Significance is set at P<0.05 level.

Where a name gives a salt, the structure may show the parent alone.

`CS(=O)(=O)CCCN` [3-(methylsulfonyl)propylamine]: the “% Inhibition of ear swelling” value in data set [1] amounted to 42%. With `COc1ccc2c(c1)c(CC(=O)O)c(C)n2C(=O)c1ccc(Cl)cc1` [Indomethacin, indomethacin, reference compound], the “% Inhibition of ear swelling” value in data set [1] is listed as 54%. For the compound `CS(=O)(=O)CCCN` (as salt: hydrochloride) [3-(methylsulfonyl)propylamine], the melting point was in the range of 146.9 to 147.4 °C. For the compound `CS(=O)(=O)CCC(N)=O` [3-(methylsulfonyl)propionamide], in data set [1], the “% Inhibition of ear swelling” value was 30%.

Source of the values: US10441555B2, “Pharmaceutical composition” (Olatec Therapeutics LLC, priority 2012, dated 2019).
